We go through eleven compounds from US20240239790A1, “7-Morpholino-1,6-Naphthyridin-5-yl Derivatives and Pharmaceutical Compositions Thereof Useful as DNA-PK Inhibitor” (adMare Therapeutics Society, priority 2021, published 2024).

Where two headings read alike, the source gives them in different places.

Data set [1] has as its system pH2AX induction in HCT116 ATM-/- multicellular tumour spheroids. Put plainly: Prodrug Radiation Sensitization in Multicellular Tumour Spheroids, inhibition of pH2AX induction following radiation. To be noted: Homo sapiens, HCT-116, 20 Gy. The class given is cell-based. A digest of the protocol:
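Endpoint: pH2AX (ser 139) or pDNA-PK (ser 2056) in cryosections fixed 1 or 2 h after 20 Gy, comparing oxygenated outer with hypoxic inner layers. Spheroids of ~0.5 mm (HCT116, FaDu; ATM-deficient cells used) held at 20% or 5% O2, 37 °C, stirred. Prodrug range 3.5 nM–10 μM.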

Data set [2] concerns the target T1, DNA-PK phosphorylation at Serine 2056 (Homo sapiens, UniProt P78527).
T1 construct: FaDu cells were purchased from ATCC; host or cells: FaDu
Kind of data set: Cellular Assay for Inhibition of DNA-PK Phosphorylation at Serine 2056 in FaDu cells (sandwich ELISA, neocarzinostatin). The class given is cell-based. To be noted: pSer2056 DNA-PK, Table 3. A digest of the protocol:
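pSer2056 and total DNA-PK were measured by sandwich ELISA in BCA-normalised FaDu lysates. Cells had 1 h compound exposure (0.3% DMSO), then 2 h with 1 μg/mL final neocarzinostatin. IC50 was fitted (variable slope) to % inhibition scaled against NCS-stimulated and DMSO-only controls.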
(In general: ELISA stands for enzyme-linked immunosorbent assay.)

For data set [3], the system named is FaDu cell line. Kind of data set: Prodrug Activation in Hypoxic Stirred Tumour Cell Suspensions. To be noted: 10 μM, 4 hours.
Method: Prodrug compounds were assayed to determine their stability and rate of activation in stirred cell suspensions under 0.2 vs 5% oxygen. Compounds were diluted 1:1000 from DMSO stocks to 10 μM final concentration in tumour cell suspensions (1% by cell volume) in MEM media containing 10% FBS, 10 mM glucose & 3.7 g/L sodium bicarbonate. Cell lines assayed included A253, A549, Detroit562, FaDu, HCT116, HEP G2, HT29, SCC25, SCC9, SiHa & TC32. Compounds and cells were then incubated for 4 hours under constant mixing at 37° C. under 5% CO2 and either 0.2 or 5% O2. Following the incubation period cellular activation of the compounds was assayed via MeOH extraction and HPLC quantification.
Where [4] appears, read: 5% O2, inner layers, read-out: Prodrug 5% O2 Inner layers EC50.
Where [5] appears, read: 5% O2, outer layers, read-out: Prodrug 5% O2 Outer layers EC50.
The mark [6] stands for this setting: 20% O2, outer layers, read-out: Prodrug 20% O2 Outer layers EC50.

For the compound `CC(c1cnn(C)c1[N+](=O)[O-])N(c1cnc2cc(N3CCOCC3)nc(O[C@H]3CC[C@@H](Nc4ncc(OCCN5CCOCC5)cn4)CC3)c2c1)S(C)(=O)=O` (stereo partly drawn) [LFA2077, N-[1-(1-methyl-5-nitro-pyrazol-4-yl)ethyl]-N-[7-morpholino-5-[4-[[5-(2-morpholinoethoxy)pyrimidin-2-yl]amino]cyclohexoxy]-1,6-naphthyridin-3-yl]methanesulfonamide], the EC50 in data set [1] (setting [4]) fell in the range of 0.01 to 0.5 µM; in data set [1] (setting [5]), 0.5 to 1 µM; in data set [1] (setting [6]), 0.01 to 0.5 µM. Besides, the IC50 in data set [2] was 1 to 10 µM. The “Fraction of prodrug converted to active form, Hypoxic 0.2% O2” value (“Fraction … Hypoxic 0.2% O2” for short) in data set [3] is “B (B is 0.05 to 0.15)”. For the same compound, the “Fraction of prodrug converted to active form, Oxic 5% O2” value (“Fraction … Oxic 5% O2” for short) in data set [3] is listed as “B (B is 0.05 to 0.15)”.

For the compound `Cc1cc(C)nc(N[C@H]2CC[C@@H](Oc3nc(N4CCOCC4)cc4ncc(OCc5cnc([N+](=O)[O-])n5C)cc34)CC2)n1` [LFA2081, 4,6-dimethyl-N-[4-[[3-[(3-methyl-2-nitro-imidazol-4-yl)methoxy]-7-morpholino-1,6-naphthyridin-5-yl]oxy]cyclohexyl]pyrimidin-2-amine], the figures for the EC50 in data set [1] (setting [4]), in data set [1] (setting [5]) and in data set [1] (setting [6]) were 0.5 to 1 µM, 1 to 10 µM and 1 to 10 µM, respectively. In data set [2], this compound showed an IC50 of 10 to 30 µM. The “Fraction … Hypoxic 0.2% O2” value in data set [3] is recorded as “B (B is 0.05 to 0.15)”. Besides, the “Fraction … Oxic 5% O2” value in data set [3] was “B (B is 0.05 to 0.15)”.

Regarding `Cc1cc(C)nc(N[C@H]2CC[C@@H](Oc3nc(N4CCOCC4)cc4ncc(OC(C)c5cnc([N+](=O)[O-])n5C)cc34)CC2)n1` (stereo partly drawn) [LFA2082, 4,6-dimethyl-N-[4-[[3-[1-(3-methyl-2-nitro-imidazol-4-yl)ethoxy]-7-morpholino-1,6-naphthyridin-5-yl]oxy]cyclohexyl]pyrimidin-2-amine], the EC50 in data set [1] (setting [4]) is 0.01 to 0.5 µM; in data set [1] (setting [5]), 1 to 10 µM; in data set [1] (setting [6]), 1 to 10 µM. In addition, in data set [2], the IC50 is 10 to 30 µM. The “Fraction … Hypoxic 0.2% O2” value in data set [3] is reported as “A (A is 0.15 to 1)”. In data set [3], the “Fraction … Oxic 5% O2” value is reported as “C (C is 0.02 to 0.05)”.

Take `Cn1c(COc2cnc3cc(N4CCOCC4)nc(O[C@H]4CC[C@@H](Nc5ccccn5)CC4)c3c2)cnc1[N+](=O)[O-]` [LFA2083, N-[4-[[3-[(3-methyl-2-nitro-imidazol-4-yl)methoxy]-7-morpholino-1,6-naphthyridin-5-yl]oxy]cyclohexyl]pyridin-2-amine]: the EC50 in data set [1] (setting [4]) fell in the range of 0.01 to 0.5 µM; in data set [1] (setting [5]), 1 to 10 µM; in data set [1] (setting [6]), 1 to 10 µM. In data set [2], the IC50 is 10 to 30 µM. In data set [3], the “Fraction … Hypoxic 0.2% O2” value is “A (A is 0.15 to 1)”. In data set [3], the “Fraction … Oxic 5% O2” value is listed as “C (C is 0.02 to 0.05)”.

With `CC(Oc1cnc2cc(N3CCOCC3)nc(O[C@H]3CC[C@@H](Nc4ccccn4)CC3)c2c1)c1cnc([N+](=O)[O-])n1C` (stereo partly drawn) [LFA2084, N-[4-[[3-[1-(3-methyl-2-nitro-imidazol-4-yl)ethoxy]-7-morpholino-1,6-naphthyridin-5-yl]oxy]cyclohexyl]pyridin-2-amine], the EC50 was in the range of 0.01 to 0.5 µM in data set [1] (setting [4]), 1 to 10 µM in data set [1] (setting [5]) and 10 to 100 µM in data set [1] (setting [6]). Further, the IC50 in data set [2] fell in the range of 10 to 30 µM. In addition, the “Fraction … Hypoxic 0.2% O2” value in data set [3] is “A (A is 0.15 to 1)”. Also, in data set [3], the “Fraction … Oxic 5% O2” value is on record as “C (C is 0.02 to 0.05)”.

Take `CC(Oc1cnc2cc(N3CCOCC3)nc(O[C@H]3CC[C@@H](Nc4ncc(CN(C)C)cn4)CC3)c2c1)c1cnc([N+](=O)[O-])n1C` (stereo partly drawn) [LFA2085, 5-[(dimethylamino)methyl]-N-[4-[[3-[1-(3-methyl-2-nitro-imidazol-4-yl)ethoxy]-7-morpholino-1,6-naphthyridin-5-yl]oxy]cyclohexyl]pyrimidin-2-amine]: the EC50 in data set [1] (setting [4]), in data set [1] (setting [5]) and in data set [1] (setting [6]) was 1 to 10 µM in each case. In data set [2], this compound showed an IC50 of 1 to 10 µM. Further, the “Fraction … Hypoxic 0.2% O2” value in data set [3] is “B (B is 0.05 to 0.15)”. The “Fraction … Oxic 5% O2” value in data set [3] is reported as “D (D is 0 to 0.02)”.

Turning to `CN(C)Cc1cnc(N[C@H]2CC[C@@H](Oc3nc(N4CCOCC4)cc4ncc(OCc5cnc([N+](=O)[O-])n5C)cc34)CC2)nc1` [LFA2086, 5-[(dimethylamino)methyl]-N-[4-[[3-[(3-methyl-2-nitro-imidazol-4-yl)methoxy]-7-morpholino-1,6-naphthyridin-5-yl]oxy]cyclohexyl]pyrimidin-2-amine], the concentration giving a half-maximal response (EC50) in data set [1] (setting [4]), in data set [1] (setting [5]) and in data set [1] (setting [6]) was 1 to 10 µM each time. The compound further yielded an IC50 in data set [2] of 10 to 30 µM. The “Fraction … Hypoxic 0.2% O2” value in data set [3] is “D (D is 0 to 0.02)”. Besides, the “Fraction … Oxic 5% O2” value in data set [3] is reported as “D (D is 0 to 0.02)”.

For `CC(Oc1cnc2cc(N3CCOCC3)nc(O[C@H]3CC[C@@H](Nc4ncc(OCCN(C)C)cn4)CC3)c2c1)c1cnc([N+](=O)[O-])n1C` (stereo partly drawn) [LFA2087, 5-[2-(dimethylamino)ethoxy]-N-[4-[[3-[1-(3-methyl-2-nitro-imidazol-4-yl)ethoxy]-7-morpholino-1,6-naphthyridin-5-yl]oxy]cyclohexyl]pyrimidin-2-amine], the 50% effective concentration (EC50) in data set [1] (setting [4]), in data set [1] (setting [5]) and in data set [1] (setting [6]) was 1 to 10 µM throughout. In data set [2], this compound registered an IC50 of 1 to 10 µM. Further, the “Fraction … Hypoxic 0.2% O2” value in data set [3] is given as “A (A is 0.15 to 1)”. In addition, the “Fraction … Oxic 5% O2” value in data set [3] was “D (D is 0 to 0.02)”.

Turning to `CN(C)CCOc1cnc(N[C@H]2CC[C@@H](Oc3nc(N4CCOCC4)cc4ncc(OCc5cnc([N+](=O)[O-])n5C)cc34)CC2)nc1` [LFA2088, 5-[2-(dimethylamino)ethoxy]-N-[4-[[3-[(3-methyl-2-nitro-imidazol-4-yl)methoxy]-7-morpholino-1,6-naphthyridin-5-yl]oxy]cyclohexyl]pyrimidin-2-amine], the 50% effective concentration (EC50) in data set [1] (setting [4]), in data set [1] (setting [5]) and in data set [1] (setting [6]) was 1 to 10 µM each time. The half-maximal inhibitory concentration (IC50) in data set [2] lay in the range of 1 to 10 µM. Besides, in data set [3], the “Fraction … Hypoxic 0.2% O2” value is “B (B is 0.05 to 0.15)”. The “Fraction … Oxic 5% O2” value in data set [3] is recorded as “D (D is 0 to 0.02)”.

As to `CC(Oc1cnc2cc(N3CCOCC3)nc(OC3CCC(Nc4ncc(OCCN5CCN(C)CC5)cn4)CC3)c2c1)c1cnn(C)c1[N+](=O)[O-]` (stereo not drawn) [LFA2089, N-[4-[[3-[1-(1-methyl-5-nitro-pyrazol-4-yl)ethoxy]-7-morpholino-1,6-naphthyridin-5-yl]oxy]cyclohexyl]-5-[2-(4-methylpiperazin-1-yl)ethoxy]pyrimidin-2-amine], the EC50 in data set [1] (setting [4]), in data set [1] (setting [5]) and in data set [1] (setting [6]) was 1 to 10 µM in each case. Besides, the IC50 in data set [2] is 1 to 10 µM. Further, the “Fraction … Hypoxic 0.2% O2” value in data set [3] is on record as “B (B is 0.05 to 0.15)”. In data set [3], the “Fraction … Oxic 5% O2” value is “D (D is 0 to 0.02)”.

In the case of `CC(NS(=O)(=O)c1cnc2cc(N3CCOCC3)nc(O[C@H]3CC[C@@H](Nc4ncc(OCCN5CCN(C)CC5)cn4)CC3)c2c1)c1cnc([N+](=O)[O-])n1C` (stereo partly drawn) [LFA2090, N-[1-(3-methyl-2-nitro-imidazol-4-yl)ethyl]-5-[4-[[5-[2-(4-methylpiperazin-1-yl)ethoxy]pyrimidin-2-yl]amino]cyclohexoxy]-7-morpholino-1,6-naphthyridine-3-sulfonamide], the EC50 in data set [1] (setting [4]), in data set [1] (setting [5]) and in data set [1] (setting [6]) was 10 to 100 µM each time. This compound came in with an IC50 in data set [2] of 10 to 30 µM. In addition, the “Fraction … Hypoxic 0.2% O2” value in data set [3] is “D (D is 0 to 0.02)”. In data set [3], the “Fraction … Oxic 5% O2” value is listed as “D (D is 0 to 0.02)”.

The EC50 is the midpoint of the concentration-response curve. As a reminder, the IC50 is the point on the concentration scale where inhibition reaches its midpoint. The low end stands for higher potency, the high end for lower potency.
